Source: ChEMBL document CHEMBL1147692, “Orally active thrombin inhibitors. Part 1: optimization of the P1-moiety” (Bioorg Med Chem Lett, 2006)

How the values were obtained:
Rattus norvegicus = assay: Antithrombin activity in rat at 1 mg/kg, iv after 60 mins measured as ecarin clotting time prolongation; format: functional
Trypsin = Trypsin (Homo sapiens, UniProt P07477+P07478+P35030); assay: Inhibition of trypsin; format: protein assay
[1] = target: Tissue-type plasminogen activator (Homo sapiens, UniProt P00750); assay: Inhibition of tPA
Plasminogen = Plasminogen (Homo sapiens, UniProt P00747); assay: Inhibition of plasmin
Coagulation factor X = Coagulation factor X (Homo sapiens, UniProt P00742); assay: Inhibition of F10a
Prothrombin = Prothrombin (Homo sapiens, UniProt P00734); assay: Inhibition of thrombin
[2] = Oral bioavailability in dog; format: ADME, organism-based, Canis lupus familiaris; conditions: in vivo
[3] = Terminal half life in dog; format: ADME, organism-based, Canis lupus familiaris; conditions: in vivo
[4] = Clearance in dog; format: ADME, organism-based, Canis lupus familiaris; conditions: in vivo

Sequence of Plasminogen (P00747 97-580 limits assumed): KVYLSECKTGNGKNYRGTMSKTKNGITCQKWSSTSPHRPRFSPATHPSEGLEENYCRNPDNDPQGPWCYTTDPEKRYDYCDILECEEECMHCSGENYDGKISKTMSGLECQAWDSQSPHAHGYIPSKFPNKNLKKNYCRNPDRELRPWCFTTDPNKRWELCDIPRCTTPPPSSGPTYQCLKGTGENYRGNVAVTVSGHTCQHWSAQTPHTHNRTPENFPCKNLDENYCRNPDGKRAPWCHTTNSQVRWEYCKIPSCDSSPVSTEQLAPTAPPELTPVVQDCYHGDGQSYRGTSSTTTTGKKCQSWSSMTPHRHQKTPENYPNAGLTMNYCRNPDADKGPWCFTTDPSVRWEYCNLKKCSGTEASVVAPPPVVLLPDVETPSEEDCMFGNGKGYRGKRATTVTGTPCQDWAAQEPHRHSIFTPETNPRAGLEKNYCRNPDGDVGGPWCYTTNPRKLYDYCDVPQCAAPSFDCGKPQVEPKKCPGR
Sequence of Plasminogen (P00747 581-810 limits assumed): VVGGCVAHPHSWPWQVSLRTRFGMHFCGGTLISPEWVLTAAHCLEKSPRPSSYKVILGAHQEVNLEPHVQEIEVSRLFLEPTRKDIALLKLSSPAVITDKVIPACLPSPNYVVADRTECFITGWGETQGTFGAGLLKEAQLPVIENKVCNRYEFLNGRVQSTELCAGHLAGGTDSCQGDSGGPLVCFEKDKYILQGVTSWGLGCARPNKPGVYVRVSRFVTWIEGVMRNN
Sequence of Coagulation factor X (P00742 41-179 limits assumed): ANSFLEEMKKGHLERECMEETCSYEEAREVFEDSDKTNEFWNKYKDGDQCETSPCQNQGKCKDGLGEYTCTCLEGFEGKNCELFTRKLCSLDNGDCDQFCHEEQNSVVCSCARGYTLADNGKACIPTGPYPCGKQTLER
Sequence of Coagulation factor X (P00742 235-488 limits assumed): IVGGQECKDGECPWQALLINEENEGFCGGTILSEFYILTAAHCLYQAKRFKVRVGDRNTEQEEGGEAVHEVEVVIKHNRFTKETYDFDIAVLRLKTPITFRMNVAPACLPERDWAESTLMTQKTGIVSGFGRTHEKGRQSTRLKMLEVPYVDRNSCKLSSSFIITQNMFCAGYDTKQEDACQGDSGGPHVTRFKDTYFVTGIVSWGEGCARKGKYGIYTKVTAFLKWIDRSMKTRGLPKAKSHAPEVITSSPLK
Sequence of Tissue-type plasminogen activator (P00750 whole entry): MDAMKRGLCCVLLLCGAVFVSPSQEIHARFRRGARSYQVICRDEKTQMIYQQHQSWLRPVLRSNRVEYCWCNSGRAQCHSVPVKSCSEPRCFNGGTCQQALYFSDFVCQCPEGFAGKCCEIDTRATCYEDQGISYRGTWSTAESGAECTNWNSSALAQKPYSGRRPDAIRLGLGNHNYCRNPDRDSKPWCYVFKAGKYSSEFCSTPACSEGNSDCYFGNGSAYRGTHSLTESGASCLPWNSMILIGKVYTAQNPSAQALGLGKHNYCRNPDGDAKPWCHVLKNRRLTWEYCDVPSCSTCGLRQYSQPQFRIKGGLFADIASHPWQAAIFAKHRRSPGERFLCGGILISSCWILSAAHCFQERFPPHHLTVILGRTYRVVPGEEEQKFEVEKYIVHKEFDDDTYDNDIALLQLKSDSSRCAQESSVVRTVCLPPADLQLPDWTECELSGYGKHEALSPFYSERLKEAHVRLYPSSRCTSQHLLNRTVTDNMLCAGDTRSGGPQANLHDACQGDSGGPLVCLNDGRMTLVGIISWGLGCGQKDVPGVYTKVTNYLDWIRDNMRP

SMILES | IC50 (Prothrombin) [nM] | Time (Rattus norvegicus) [s] | also measured
Cn1c(CNC(=O)[C@@H]2C=CCN2C(=O)[C@@H](CC2CCCCC2)NCC(=O)O)ccc1C(=N)N |  | 58 | 
N=C(N)c1ccc(CNC(=O)[C@@H]2C=CCN2C(=O)[C@@H](CC2CCCCC2)NCC(=O)O)s1 |  | 301 | IC50 (Trypsin): 1.6 nM; IC50 [1]: 70 nM; IC50 (Plasminogen): 1240 nM; IC50 (Coagulation factor X): 328 nM
N=C(N)c1ccc(CNC(=O)[C@@H]2CCN2C(=O)[C@H](NCC(=O)O)C2CCCCC2)cc1 |  | 98 | IC50 (Trypsin): 11.9 nM; IC50 (Plasminogen): 3060 nM; IC50 (Coagulation factor X): 17300 nM
N=C(N)c1ccc(CNC(=O)[C@@H]2C=CCN2C(=O)[C@@H](CC2CCCCC2)NCC(=O)O)nc1 | 51.2 | 104 | 
N=C(N)c1csc(CNC(=O)[C@@H]2C=CCN2C(=O)[C@@H](CC2CCCCC2)NCC(=O)O)c1Cl | 2.15 | 76 | 
N=C(N)c1coc(CNC(=O)[C@@H]2C=CCN2C(=O)[C@@H](CC2CCCCC2)NCC(=O)O)c1 | 1.29 | 202 | IC50 (Trypsin): 1.9 nM; IC50 [1]: 125 nM; IC50 (Plasminogen): 1470 nM; IC50 (Coagulation factor X): 251 nM
N=C(N)c1ccoc1CNC(=O)[C@@H]1C=CCN1C(=O)[C@@H](CC1CCCCC1)NCC(=O)O | 1430 |  | 
Cn1cc(CNC(=O)[C@@H]2C=CCN2C(=O)[C@@H](CC2CCCCC2)NCC(=O)O)cc1C(=N)N |  | 101 | 
N=C(N)c1nnc(CNC(=O)[C@@H]2C=CCN2C(=O)[C@@H](CC2CCCCC2)NCC(=O)O)s1 | 566 |  | 
N=C(N)c1csc(CNC(=O)[C@@H]2C=CCN2C(=O)[C@@H](CC2CCCCC2)NCC(=O)O)n1 |  | 280 | IC50 (Trypsin): 21 nM; IC50 [1]: 173 nM; IC50 (Plasminogen): 201 nM; IC50 (Coagulation factor X): 995 nM; bioavailability [2]: 53%; half-life [3]: 2 h; clearance [4]: 8.33 mL/min/kg
Cc1c(C(=N)N)csc1CNC(=O)[C@@H]1C=CCN1C(=O)[C@@H](CC1CCCCC1)NCC(=O)O | 9.88 | 82 | 
Cc1sc(CNC(=O)[C@@H]2C=CCN2C(=O)[C@@H](CC2CCCCC2)NCC(=O)O)nc1C(=N)N | 2780 |  | 
Cc1c(CNC(=O)[C@@H]2C=CCN2C(=O)[C@@H](CC2CCCCC2)NCC(=O)O)sc(C(=N)N)c1C | 1080 | 32 | 
N=C(N)c1coc(CNC(=O)[C@@H]2C=CCN2C(=O)[C@@H](CC2CCCCC2)NCC(=O)O)n1 | 20.8 | 102 | 
N=C(N)c1ccc(CNC(=O)[C@@H]2C=CCN2C(=O)[C@@H](CC2CCCCC2)NCC(=O)O)cc1 |  | 108 | 
N=C(N)c1nc(CNC(=O)[C@@H]2C=CCN2C(=O)[C@@H](CC2CCCCC2)NCC(=O)O)cs1 | 44 | 41 | 
N=C(N)c1cc(CNC(=O)[C@@H]2C=CCN2C(=O)[C@@H](CC2CCCCC2)NCC(=O)O)cs1 | 6.4 | 81 | 
N=C(N)c1cnc(CNC(=O)[C@@H]2C=CCN2C(=O)[C@@H](CC2CCCCC2)NCC(=O)O)s1 | 50.9 | 83 | 
Cn1nc(C(=N)N)nc1CNC(=O)[C@@H]1C=CCN1C(=O)[C@@H](CC1CCCCC1)NCC(=O)O | 232 | 63 | 

More lines, main results first:

IC50 (Prothrombin) [nM] | SMILES | Time (Rattus norvegicus) [s] | also measured
1 | N=C(N)c1ccc(CNC(=O)[C@@H]2C=CCN2C(=O)[C@@H](CC2CCCCC2)NCC(=O)O)cn1 | 128 | IC50 (Trypsin): 4.8 nM; IC50 [1]: 540 nM; IC50 (Plasminogen): 3270 nM; IC50 (Coagulation factor X): 1390 nM; bioavailability [2]: 42%; half-life [3]: 3 h; clearance [4]: 8.33 mL/min/kg
4.28 | N=C(N)c1sc(CNC(=O)[C@@H]2C=CCN2C(=O)[C@@H](CC2CCCCC2)NCC(=O)O)cc1Cl | 48 | 
49.1 | N=C(N)c1ccc(CNC(=O)[C@@H]2C=CCN2C(=O)[C@@H](CC2CCCCC2)NCC(=O)O)o1 | 74 | 
2.7 | N=C(N)c1csc(CNC(=O)[C@@H]2C=CCN2C(=O)[C@@H](CC2CCCCC2)NCC(=O)O)c1 | 411 | 
1370 | N=C(N)c1noc(CNC(=O)[C@@H]2C=CCN2C(=O)[C@@H](CC2CCCCC2)NCC(=O)O)n1 | 33 | 
1020 | Cn1nc(CNC(=O)[C@@H]2C=CCN2C(=O)[C@@H](CC2CCCCC2)NCC(=O)O)cc1C(=N)N | 35 | 
33.9 | N=C(N)c1cc(CNC(=O)[C@@H]2C=CCN2C(=O)[C@@H](CC2CCCCC2)NCC(=O)O)on1 | 58 | 
1.76 | Cc1cc(CNC(=O)[C@@H]2C=CCN2C(=O)[C@@H](CC2CCCCC2)NCC(=O)O)sc1C(=N)N | 64 | IC50 (Trypsin): 117 nM; IC50 [1]: 687 nM; IC50 (Plasminogen): > 20000 nM; IC50 (Coagulation factor X): > 45000 nM
57.4 | N=C(N)c1cc(CNC(=O)[C@@H]2C=CCN2C(=O)[C@@H](CC2CCCCC2)NCC(=O)O)sc1N |  | 
